Results from ChEMBL document CHEMBL3785015, “Phenobarbital pharmacokinetics and bioavailability in adults” (J Clin Pharmacol, 1982).

How the values were obtained:
[1] = Terminal half life in healthy human subjects (6 subjects) at 2.6 mg/kg, iv by HPLC method; assay type: ADME, organism-based; settings: in vivo, read-out: beta t1/2 (converted)
[2] = Terminal half life in healthy human subjects (6 subjects) at 2.9 mg/kg, po by HPLC method; assay type: ADME, organism-based; settings: in vivo, read-out: beta t1/2 (converted)
[3] = Apparent volume of distribution in healthy human subjects (6 subjects) at 2.6 mg/kg, iv by HPLC method; assay type: ADME, organism-based; settings: in vivo, read-out: Vd(app)
[4] = Renal clearance in healthy human subjects (6 subjects) at 2.6 mg/kg, iv by HPLC method; assay type: ADME, organism-based, Kidney; settings: in vivo
[5] = Total body clearance in healthy human subjects (6 subjects) at 2.6 mg/kg, iv by HPLC method; assay type: ADME, organism-based; settings: in vivo
[6] = Tmax in healthy human subjects (6 subjects) at 2.9 mg/kg, po by HPLC method; assay type: ADME, organism-based; settings: in vivo
[7] = Cmax in healthy human subjects (6 subjects) at 2.9 mg/kg, po by HPLC method; assay type: ADME, organism-based; design: dose 2.9 mg/kg, route oral; settings: in vivo
[8] = Oral bioavailability in healthy human subjects (6 subjects) at 2.9 mg/kg by HPLC method; assay type: ADME, organism-based; settings: in vivo
[9] = Corrected oral bioavailability in healthy human subjects (6 subjects) at 2.9 mg/kg by HPLC method; assay type: ADME, organism-based; settings: in vivo
[10] = Drug dissolution in water measured during 15 mins; assay type: physicochemical; settings: buffer, 0.25 h
[11] = Drug dissolution in 0.1N HCl measured during 15 mins; assay type: physicochemical; settings: buffer, 0.25 h
[12] = Oral bioavailability in human subjects receiving phenobarbital tablets after having received phenobarbital infusion for […] withdrawal; assay type: ADME, organism-based; settings: in vivo
[13] = Drug dissolution in acid medium after 90 mins; assay type: physicochemical; settings: 1.5 h
[14] = Drug dissolution in aqueous medium after 90 mins; assay type: physicochemical; settings: buffer, 1.5 h
[15] = Tmax in human; assay type: ADME, organism-based; settings: in vivo
[16] = Tmax in adult human; assay type: ADME, organism-based; settings: in vivo
[17] = Elimination half life in healthy human subjects (6 subjects) at 2.6 mg/kg, iv measured during intravenous control dose (period-1) by HPLC method; assay type: ADME, organism-based; settings: in vivo, read-out: beta t1/2 (converted)
[18] = Elimination half life in healthy human subjects (6 subjects) measured during alkaline diuresis dose (period-2) by HPLC method; assay type: ADME, organism-based; settings: in vivo, read-out: beta t1/2 (converted)
[19] = Elimination half life in healthy human subjects (6 subjects) at 2.9 mg/kg, po measured during oral dose (period-3) by HPLC method; assay type: ADME, organism-based; settings: in vivo, read-out: beta t1/2 (converted)
Homo sapiens [20] = assay: Distribution half life in healthy human subjects (6 subjects) at 2.6 mg/kg, iv by HPLC method; assay type: ADME, organism-based; settings: in vivo
Homo sapiens [21] = assay: Disposition rate constant at distribution phase in healthy human subjects (6 subjects) at 2.6 mg/kg, iv by HPLC method; assay type: ADME, organism-based; settings: in vivo
[22] = Disposition rate constant at terminal phase in healthy human subjects (6 subjects) at 2.6 mg/kg, iv by HPLC method; assay type: ADME, organism-based; settings: in vivo
[23] = Disposition rate constant at terminal phase in healthy human subjects (6 subjects) at 2.9 mg/kg, po by HPLC method; assay type: ADME, organism-based; settings: in vivo

In the case of CCC1(c2ccccc2)C(=O)NC(=O)NC1=O [PHENOBARBITAL], the half-life [1] was 139 h, the half-life [2] was 122 h and the Vd [3] was 0.6 L/kg. It also gave a CL renal [4] of 0.8 mL/h/kg, a clearance [5] of 3 mL/h/kg and a Tmax [6] of 2.3 h. The Cmax [7] was 5500 ng/mL, the bioavailability [8] was 83.4% and the bioavailability [9] was 94.9%. It also gave a Drug dissolution [10] of 80%, a Drug dissolution [11] of 81.5% and a bioavailability [12] of 100%. The Drug dissolution [13] was 61.3%, the Drug dissolution [14] was 86% and the Tmax [15] was ≤ 18 h. The Tmax [16] was 50 h, the half-life [17] was 147 h and the half-life [18] was 128 h. The half-life [19] was 149 h, the alphat1/2 (Homo sapiens [20]) was 0.18 h and the K (Homo sapiens [21]) was 3.8 h⁻¹. It also gave a k el [22] of 1.39e-06 s⁻¹ and a k el [23] of 1.58e-06 s⁻¹.
